# Like-named read-outs stand apart in the source and are kept apart here.
# What was measured:
# HT29 colon carcinoma = experiment: MTS viability assay, 1 hour exposure, HT29; assay type: cell-based; details: Homo sapiens, HT-29, HT29, 1 hour exposure
# Method: (§1) Using four different cell lines, HT29 colon, OVCAR-3 ovarian, AsPC-1 pancreatic, and PC-3 prostate carcinoma, the IC50 values of compound 6 and irofulven were established for one hour incubations using the MTS viability assay (Buttke T. M. et al., J Immunol Methods. 1993, 157, 233).
# [1] = system: OVCAR-3 ovarian carcinoma; experiment: MTS viability assay, 1 hour exposure, OVCAR-3; assay type: cell-based; details: Homo sapiens, OVCAR-3, 1 hour exposure
# Method: as §1
# [2] = system: AsPC-1 pancreatic carcinoma; experiment: MTS viability assay, 1 hour exposure, AsPC-1; assay type: cell-based
# Method: as §1
# PC-3 prostate carcinoma = experiment: MTS viability assay, 1 hour exposure, PC-3; assay type: cell-based; details: PC-3, 1 hour exposure
# Method: as §1
# [3] = system: subcutaneous MV522 tumors; experiment: MV522 mouse xenograft model; assay type: in vivo; details: 3/wk for 21 d; for PR (Partial Response): mice with partial response/mice
# Method: The MV522 xenograft model was used to test the in vivo activity of compounds 6 and 7 as previously described (Kelner M. J. et al., Invest New Drugs. 1996, 14, 161). Mice bearing subcutaneous MV522 tumors were dosed intraperitoneally three times a week for three weeks (3/wk for 21 d) at 10 mg/kg of irofulven, doses ranging from 7.5 to 10 mg/kg for compound 6, or 5 to 15 mg/kg for compound 7 (FIGS. 1 and 2 and Table 3). Compound 6 had potent anti-tumor activity against MV522 tumors, producing 4/6 and 5/5 partial responses in mice treated with 7.5 and 10 mg/kg doses, respectively.
# The MV522 xenograft model was used to test the in vivo activity of Compound 6 administration on a weekly schedule. Nude mice bearing subcutaneous MV522 tumors were dosed intraperitoneally (IP) 1/wk for 14 d at 17.5 mg/kg Compound 6 vs 7.5 mg/kg Compound 6 or 10 mg/kg irofulven on the intermittent schedule (3/wk for 21 d). The comparator dosages were the previously-determined efficacious MTDs for the 3/wk for 21 d schedule (FIG. 5).
# [4] = Plasma stability in pooled fresh human plasma at 37° C., LC/MS/MS; assay type: in vitro ADME
# Excerpt: Compounds 6 and 7 were compared against irofulven for their respective plasma stability (e.g., the enhanced stability or in vivo terminal phase elimination half life (T½) of a compound in plasma; it is believed that the greater the stability and T½ the more likely it is that the compound will be incorporated into or have an effect on a cancerous cell, such as cells of a tumor or a hematologic cancerous cell). Pooled fresh human plasma was spiked with each analog, and the compound stability profile was measured at 37° C. using LC/MS/MS. […] These properties differentiate Compounds 6 and 7 from irofulven and may have enhanced therapeutic potential. The increased plasma stability of Compound 6 may be particularly advantageous in drug formulation and delivery as it relates to increased exposure of the tumor to the drug. Thus, compound 6 has increased stability in human plasma in vitro (FIG. 3).
# [5] = Pharmacokinetics after single intravenous administration in male CD-1 mice; assay type: in vivo, mouse; details: for clearance: read-out: CLp (converted); for Vd: read-out: Vdss
# Method: The pharmacokinetics (PK) of Compound 6 was investigated in the CD-1 male mouse. A single intravenous administration of 5 mg/kg was followed by sequential blood collections and analysis of plasma by LC/MS/MS.
# [6] = Maximum tolerated dose on the 3/wk for 21 d schedule; details: nude, mouse, in vivo, IP, read-out: previously-determined efficacious MTD
# Method: A novel dosing schedule for acyfulvene analogs is described herein. This dosing schedule requires less frequent administration of individual dosages exceeding the previously-determined maximum tolerated dose (MTD) for each dose on an intermittent schedule of 3/wk for 21 d. For example, compound 6 was tested on a dosing schedule of 1/wk for 14 d. On this schedule, the total cumulative dose was less than the total cumulative dose administered on the 3/wk for 21 d-schedule, but with equal efficacy (FIG. 5). The 3/wk for 21 d dosing schedule is a standard method of administration for irofulven. The 1/wk for […] schedule for Compound 6 disclosed herein was unexpected based on prior work and presents a unique opportunity to administer less total dose of a cytotoxic chemotherapeutic less frequently and thereby reduce the overall toxic effect on the patient. This represents an increase in human safety and compliance, as a weekly dosing schedule is easier to follow than a more frequent dosing schedule.
# The MV522 xenograft model was used to test the in vivo activity of Compound 6 administration on a weekly schedule. […] The comparator dosages were the previously-determined efficacious MTDs for the 3/wk for 21 d schedule (FIG. 5).
# MV522 lung cancer cells = experiment: Thymidine incorporation into cellular DNA, 2 hour exposure, MV522 tumor cell line; assay type: cell-based; details: MV522, 2 hour exposure
# Excerpt: The anti-cancer activities of compounds 6, 7, 14, 16, 18, 20, 21 and 22 were compared to that of irofulven, 3, using MV522 lung cancer cells in vitro (See Kelner M. J. et al., Cancer Res. 1987, 47, 3186).
# [7] = Homo sapiens, ASPC1, AsPC-1, 1 hour exposure, read-out: GI50
# [8] = mouse, plasma, 5 mg/kg single IV
# [9] = mouse, plasma, 5 mg/kg IV, concentrations extrapolated from a 12.9 mg/kg IV dose
structure (smiles),measurement,setting,value
"CC1=C(CN(O)C(N)=O)C2=C(C)C3(CC3)[C@@](C)(O)C(=O)C2=C1 [Compound 6, N-hydroxy-N-(methylacylfulvene)urea]",GI50,HT29 colon carcinoma,0.68 µg/mL
same,GI50,[1],0.6 µg/mL
same,GI50,"[2]; AsPC-1, 1 hour exposure",greater potency
same,GI50,[2]; [7],16 µg/mL
same,GI50,PC-3 prostate carcinoma,0.41 µg/mL
same,% Tumor Growth Inhibition,[3]; 7.5 mg/kg i.p.,100%
same,Relative Mean Tumor Weight (Wt/Wi),[3]; 7.5 mg/kg i.p.,0.9
same,PR (Partial Response),[3]; 7.5 mg/kg i.p.,4/6
same,% Tumor Growth Inhibition,[3]; 10 mg/kg i.p.,100%
same,Relative Mean Tumor Weight (Wt/Wi),[3]; 10 mg/kg i.p.,0.3
same,PR (Partial Response),[3]; 10 mg/kg i.p.,5/5
same,stability in human plasma compared with irofulven,[4],more stable
same,AUC(0-t),[5]; 5 mg/kg single IV,greater
same,CLp,[5]; 5 mg/kg single IV,reduced
same,Cmax,[5]; 5 mg/kg single IV,greater
same,T1/2,[5]; 5 mg/kg single IV,significantly longer
same,Vdss,[5]; 5 mg/kg single IV,reduced
same,AUC(0-inf),[5]; [8],2200 ng·h/mL
same,half-life,[5]; [8],2.36 h
same,AUC(0-t),"[5]; mouse, plasma, 5 mg/kg single IV, read-out: AUC (0-t)",2200 ng·h/mL
same,clearance,[5]; [8],37.8 mL/min/kg
same,Cmax,"[5]; mouse, plasma, 5 mg/kg single IV, read-out: Cmax",9730 ng/mL
same,Vd,[5]; [8],0.548 L/kg
same,MTD at 21 d,[6],7.5 mg/kg
"CC1=C(CO)C2=C(C)C3(CC3)[C@@](C)(O)C(=O)C2=C1 [Irofulven, 6-hydroxymethylacylfulvene, reference compound]",IC50,MV522 lung cancer cells,1.2 ± 0.1 µM
same,GI50,HT29 colon carcinoma,1.4 µg/mL
same,GI50,[1],0.15 µg/mL
same,GI50,[2]; [7],> 100 µg/mL
same,GI50,PC-3 prostate carcinoma,0.58 µg/mL
same,% Tumor Growth Inhibition,[3]; 10 mg/kg i.p.,100%
same,Relative Mean Tumor Weight (Wt/Wi),[3]; 10 mg/kg i.p.,0.8
same,PR (Partial Response),[3]; 10 mg/kg i.p.,6/7
same,AUC(0-inf),[5]; [9],695 ng·h/mL
same,half-life,[5]; [9],0.0988 h
same,AUC(0-t),"[5]; mouse, plasma, 5 mg/kg IV, concentrations extrapolated from a 12.9 mg/kg IV dose, read-out: AUC (0-t)",691 ng·h/mL
same,clearance,[5]; [9],120 mL/min/kg
same,Cmax,"[5]; mouse, plasma, 5 mg/kg IV, concentrations extrapolated from a 12.9 mg/kg IV dose, read-out: Cmax",5650 ng/mL
same,Vd,[5]; [9],0.948 L/kg
same,MTD at 21 d,[6],10 mg/kg
"CC(=O)ON(CC1=C(C)C=C2C(=O)[C@](C)(O)C3(CC3)C(C)=C21)C(N)=O [Compound 7, N-Acetoxy-N-(methylacylfulvene)urea]",% Tumor Growth Inhibition,[3]; 5 mg/kg i.p.,56%
same,Relative Mean Tumor Weight (Wt/Wi),[3]; 5 mg/kg i.p.,4.5
same,% Tumor Growth Inhibition,"[3]; 5 mg/kg i.p., listed as compound 7",56%
same,% Tumor Growth Inhibition,[3]; 10 mg/kg i.p.,79%
same,Relative Mean Tumor Weight (Wt/Wi),[3]; 10 mg/kg i.p.,2.2
same,% Tumor Growth Inhibition,"[3]; 10 mg/kg i.p., listed as compound 7",79%
same,% Tumor Growth Inhibition,[3]; 15 mg/kg i.p.,100%
same,Relative Mean Tumor Weight (Wt/Wi),[3]; 15 mg/kg i.p.,0.7
same,PR (Partial Response),[3]; 15 mg/kg i.p.,4/6
same,stability in human plasma compared with irofulven,[4],less stable

# — patent publication US7655695B2, “Illudin analogs useful as anticancer agents” (The Regents of The University of California, priority 2005, dated 2010)
